Test results published in article PMC10018608 (Signal Transduction and Targeted Therapy, 2023).
Like-named read-outs stand apart in the source and are kept apart here.

Tests used:
SARS-CoV-2 (B.1.1.7) = assay: Plaque reduction assay in VeroE6-TMPRSS2; type: cell-based; settings: Severe acute respiratory syndrome coronavirus 2
SARS-CoV-2 (B.1.351) = assay: Plaque reduction assay in VeroE6-TMPRSS2; type: cell-based; settings: Severe acute respiratory syndrome coronavirus 2
in vivo [1] = settings: male, beagle, dog
in vivo [2] = settings: male, ICR, mouse
[3] = for Corpora lutea / Implantation sites / Live embryos / Resorptions: cesarean section observation; for appearance malformation rate (%): fetal appearance
in vitro = in vitro ADME, human; settings: human plasma, equilibrium dialysis; read-out: plasma unbound fraction
human plasma protein = assay: in vitro; type: in vitro ADME; settings: human plasma, 1 μM, equilibrium dialysis 5 h
[4] = tested on: SARS-CoV-2 Omicron BA.1 (B.1.1.529.1); assay: In vitro antiviral screening, viral genome copies by RT-qPCR in VeroE6-TMPRSS2; type: cell-based; settings: Omicron BA.1, VeroE6-TMPRSS2
Neutrophil Elastase = biological target: T1, Neutrophil Elastase (Homo sapiens, UniProt P08246); assay: Mammalian proteases activity assay; type: biochemical
T1 construct: purchased Biovision, USA
Description: (§1) The mammalian proteases activity assay was analyzed using the assay kit (Biovision, USA) in triplicate by following manufacturer’s manual.

Human Cathepsin L = biological target: T2, Human Cathepsin L (Homo sapiens, UniProt P07711); assay: Mammalian proteases activity assay; type: biochemical
T2 construct: purchased Biovision, USA
Description: as §1

[5] = female, SD, rat, in vivo, 1000 mg/kg

T2 sequence (P07711 114-333): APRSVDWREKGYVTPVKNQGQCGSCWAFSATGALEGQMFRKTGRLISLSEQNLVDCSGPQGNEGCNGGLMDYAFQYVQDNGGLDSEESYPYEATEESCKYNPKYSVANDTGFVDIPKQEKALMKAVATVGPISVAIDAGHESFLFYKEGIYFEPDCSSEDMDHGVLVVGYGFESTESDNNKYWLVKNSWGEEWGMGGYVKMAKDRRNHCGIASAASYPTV
T1 sequence (P08246 30-267): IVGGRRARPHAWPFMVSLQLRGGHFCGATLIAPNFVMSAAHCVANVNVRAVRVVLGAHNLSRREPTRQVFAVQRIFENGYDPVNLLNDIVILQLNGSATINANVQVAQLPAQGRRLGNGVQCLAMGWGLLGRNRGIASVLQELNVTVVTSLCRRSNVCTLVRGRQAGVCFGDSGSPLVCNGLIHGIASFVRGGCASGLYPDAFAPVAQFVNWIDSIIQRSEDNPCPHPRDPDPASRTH

**Q.** For `COC[C@@H](NC(=O)C1CCCC(F)(F)C1)C(=O)N[C@H](Cc1ccccc1)C(=O)C(=O)NCc1nccs1` (stereo partly drawn) [SY110, N-((R)-1-(((R)-3,4-dioxo-1-phenyl-4-((thiazol-2-ylmethyl)amino)butan-2-yl)amino)-3-methoxy-1-oxopropan-2-yl)-3,3-difluorocyclohexane-1-carboxamide], which EC50 (SARS-CoV-2 (B.1.1.7)) is on record?
**A.** Its EC50 is 1.21 µM.

**Q.** What about the EC50 (SARS-CoV-2 (B.1.351)) of the same molecule?
**A.** Its EC50 is 2.84 µM.

**Q.** And the AUC(0-inf) (in vivo [1]; iv, 1 mg/kg)?
**A.** The AUC(0-inf) was 628 ± 113 ng·h/mL.

**Q.** What about the AUC(0-t) (in vivo [1]; iv, 1 mg/kg) of the same molecule?
**A.** Its AUC(0-t) is 624 ± 113 ng·h/mL.

**Q.** And the Cmax (in vivo [1]; iv, 1 mg/kg)?
**A.** The Cmax was 1270 ± 333 ng/mL.

**Q.** What about the Tmax (in vivo [1]; iv, 1 mg/kg) of the same molecule?
**A.** Its Tmax is 4.98 min.

**Q.** And the clearance (in vivo [1]; iv, 1 mg/kg)?
**A.** The clearance was 27.1 mL/min/kg.

**Q.** And the half-life (in vivo [1]; iv, 1 mg/kg)?
**A.** Its half-life is 36.6 ± 3 min.

**Q.** What about the AUC(0-inf) (in vivo [1]; po, 10 mg/kg) of the same molecule?
**A.** Its AUC(0-inf) is 8290 ± 378 ng·h/mL.

**Q.** And the AUC(0-t) (in vivo [1]; po, 10 mg/kg)?
**A.** Its AUC(0-t) is 8240 ± 370 ng·h/mL.

**Q.** What about the Cmax (in vivo [1]; po, 10 mg/kg) of the same molecule?
**A.** The Cmax was 3060 ± 136 ng/mL.

**Q.** What about the Tmax (in vivo [1]; po, 10 mg/kg) of the same molecule?
**A.** Its Tmax is 60 min.

**Q.** What about the bioavailability (in vivo [1]; po, 10 mg/kg) of the same molecule?
**A.** The bioavailability was 132%.

**Q.** And the half-life (in vivo [1]; po, 10 mg/kg)?
**A.** The half-life was 335 ± 74.4 min.

**Q.** What about the “Results, acute toxicity study” value (mice, p.o., 1000 mg/kg, single dose) of the same molecule?
**A.** Its value is “No mice died”.

**Q.** What about the “maximal tolerated single dose” value (text says rats) of the same molecule?
**A.** The value was “at least 1.0 g/kg”.

**Q.** What about the AUC(0-inf) (in vivo [2]; iv, 1 mg/kg) of the same molecule?
**A.** The AUC(0-inf) was 87.1 ± 7.81 ng·h/mL.

**Q.** And the AUC(0-t) (in vivo [2]; iv, 1 mg/kg)?
**A.** The AUC(0-t) was 85.9 ± 7.6 ng·h/mL.

**Q.** What about the Cmax (in vivo [2]; iv, 1 mg/kg) of the same molecule?
**A.** The Cmax was 285 ± 16.4 ng/mL.

**Q.** And the Tmax (in vivo [2]; iv, 1 mg/kg)?
**A.** Its Tmax is 4.8 min.

**Q.** What about the clearance (in vivo [2]; iv, 1 mg/kg) of the same molecule?
**A.** The clearance was 192 ± 16.4 mL/min/kg.

**Q.** And the half-life (in vivo [2]; iv, 1 mg/kg)?
**A.** The half-life was 16.2 ± 10.2 min.

**Q.** And the AUC(0-inf) (in vivo [2]; po, 150 mg/kg)?
**A.** The AUC(0-inf) was 15700 ± 4420 ng·h/mL.

**Q.** And the AUC(0-t) (in vivo [2]; po, 150 mg/kg)?
**A.** Its AUC(0-t) is 15100 ± 5140 ng·h/mL.

**Q.** And the Cmax (in vivo [2]; po, 150 mg/kg)?
**A.** Its Cmax is 4080 ± 636 ng/mL.

**Q.** And the Tmax (in vivo [2]; po, 150 mg/kg)?
**A.** Its Tmax is 19.8 ± 8.4 min.

**Q.** And the half-life (in vivo [2]; po, 150 mg/kg)?
**A.** The half-life was 195 ± 61.8 min.

**Q.** What about the “Abnormal initial position of common carotid artery” value [3, 5] of the same molecule?
**A.** The value was 0.0 ± 0.0.

**Q.** And the “Abnormal initial position of subclavian artery” value [3, 5]?
**A.** The value was 0.0 ± 0.0.

**Q.** What about the “Abnormal position of umbilical artery” value [3, 5] of the same molecule?
**A.** The value was 0.0 ± 0.0.

**Q.** What about the “Absent of aortic arch” value [3, 5] of the same molecule?
**A.** Its value is 0.0 ± 0.0.

**Q.** And the “Absent of innominate artery” value [3, 5]?
**A.** Its value is 0.0 ± 0.0.

**Q.** What about the “Rib: 14 Ribs – [V]” value [3, 5] of the same molecule?
**A.** Its value is 6.9 ± 10.1.

**Q.** And the “Rib: Shortened #13 – [V]” value [3, 5]?
**A.** Its value is 2.9 ± 6.4.

**Q.** And the “Skull: Interparietal bone, incomplete ossification – [V]” value [3, 5]?
**A.** Its value is 0.0 ± 0.0.

**Q.** And the “Skull: Parietal bone, incomplete ossification – [V]” value [3, 5]?
**A.** The value was 0.0 ± 0.0.

**Q.** And the “Visceral malformation rate (%)” value [3, 5]?
**A.** Its value is 0.0 ± 0.0%.

**Q.** What about the Corpora lutea ([3]; rat, 100 mg/kg) of the same molecule?
**A.** Its Corpora lutea is 16.2 ± 2.1.

**Q.** What about the Implantation sites ([3]; rat, 100 mg/kg) of the same molecule?
**A.** Its Implantation sites is 15.0 ± 3.5.

**Q.** And the Live embryos ([3]; rat, 100 mg/kg)?
**A.** The Live embryos was 14.5 ± 3.6.

**Q.** And the Resorptions ([3]; rat, 100 mg/kg)?
**A.** Its Resorptions is 0.5 ± 0.8.

**Q.** What about the Corpora lutea ([3]; rat, 300 mg/kg) of the same molecule?
**A.** The Corpora lutea was 17.7 ± 1.5.

**Q.** What about the Implantation sites ([3]; rat, 300 mg/kg) of the same molecule?
**A.** Its Implantation sites is 16.9 ± 1.5.

**Q.** And the Live embryos ([3]; rat, 300 mg/kg)?
**A.** The Live embryos was 16.3 ± 1.6.

**Q.** What about the Resorptions ([3]; rat, 300 mg/kg) of the same molecule?
**A.** The Resorptions was 0.6 ± 0.5.

**Q.** What about the Corpora lutea ([3]; rat, 1000 mg/kg) of the same molecule?
**A.** The Corpora lutea was 17.4 ± 2.5.

**Q.** And the Implantation sites ([3]; rat, 1000 mg/kg)?
**A.** Its Implantation sites is 17.0 ± 2.5.

**Q.** What about the Live embryos ([3]; rat, 1000 mg/kg) of the same molecule?
**A.** Its Live embryos is 16.4 ± 2.1.

**Q.** What about the Resorptions ([3]; rat, 1000 mg/kg) of the same molecule?
**A.** The Resorptions was 0.6 ± 0.9.

**Q.** And the “appearance malformation rate (%)” value ([3]; rat, 100 mg/kg)?
**A.** Its value is 0.0 ± 0.0%.

**Q.** And the “appearance malformation rate (%)” value ([3]; rat, 300 mg/kg)?
**A.** The value was 0.0 ± 0.0%.

**Q.** And the “appearance malformation rate (%)” value ([3]; rat, 1000 mg/kg)?
**A.** The value was 0.0 ± 0.0%.

**Q.** What about the “embryo-fetal development study outcome” value ([3]; rats, 1000 mg/kg/day (the highest dose tested)) of the same molecule?
**A.** Its value is “no observed SY110-related maternal toxicity, reproductive toxicity, and effect on embryo-fetal viability”.

**Q.** What about the fraction unbound (in vitro) of the same molecule?
**A.** The fraction unbound was 0.301.

**Q.** What about the “Fraction of Bound (%)” value (human plasma protein) of the same molecule?
**A.** Its value is 69.9%.

**Q.** And the “antiviral activity among the six compounds tested” value [4]?
**A.** The value was “most potent antiviral activity”.

**Q.** What about the IC50 (Neutrophil Elastase) of the same molecule?
**A.** Its IC50 is over 100 µM.

**Q.** What about the IC50 (Human Cathepsin L) of the same molecule?
**A.** The IC50 was over 100 µM.
